The target of the experiment is T1, GluA1 (Homo sapiens, UniProt P42261).
T1 construct: expressed in transfected cells; host or cells: HEK293T
Briefly: Whole-cell patch-clamp recordings of homomeric GluA1 AMPAR in transfected HEK293T cells. The class given is cell-based. As to conditions: for Amplitude (glutamate plus TC compound) / Amplitude, applying glutamate alone after TC compound / IC50 / A/AI / t deact / t des: GluA1; for Amplitude (glutamate plus TC compound): 10 mM glutamate + TC compound (12 µM optimal concentration), HEK293T, -60 mV, pH 7.4, 22 °C, mean ± SEM; for Amplitude (glutamate plus TC compound) / Amplitude, applying glutamate alone after TC compound: n = 10; for Amplitude, applying glutamate alone after TC compound: 10 mM glutamate alone after 20 s wash following the TC compound; for A/AI: ratio of current with glutamate alone (A) to inhibited current after TC compound (AI); for t deact: weighted tau of deactivation, 10 mM glutamate for 1 ms, glutamate alone 2.1±0.1; for t deact / t des: with TC compound; for t des: weighted tau of desensitization, 10 mM glutamate 500 ms, glutamate alone 2.5±0.1; for influence on τw des: GluA1 subunit. As for the experimental part: The effect of five TC compounds on whole-cell currents of four AMPAR subunits (GluA1, GluA1/2, GluA2, and GluA2/3) was investigated using transfected HEK293T cells. Each compound was applied separately to each subunit, with experiments conducted on 8–10 cells per condition to ensure reproducibility. […] At a glutamate concentration of 10 mM and a 500 ms protocol, approximately 95% of AMPAR channels were open. The A/AI ratio was calculated to compare the results, where A represents normalized current readings and AI indicates the inhibited current following TC compound exposure. […] Following closely, TC-1 inhibited the tested subunits by 5-fold.
The IC50 values were examined using GraphPad Prism software 9.5.0.730 (x64) (Table S6), which confirmed these findings. The IC50 values of TC substances were calculated by standardizing the peak current amplitudes using data obtained from 8–10 cells. Following a 500 ms exposure to the compounds, the cells were rinsed with glutamate for 20 s. Next, a solution containing just glutamate at a concentration of 10 mM was administered, and the resulting immediate induced electrical current was measured and documented (Figure 3).
In addition, an evaluation was conducted on the deactivation rates (τw deact) of all the examined chemicals to investigate their impact on the kinetics of deactivation. The chemicals were assessed for their effect on the deactivation kinetics of AMPAR subunits by briefly administering 10 mM glutamate for 1 ms to begin currents. This experimental setup allowed for the observation of τw deact under controlled conditions. […] TC-5 induced an approximately 2-fold increase in τw deact across all four tested subunits. […] These findings highlight the differential impact of TC compounds on deactivation kinetics across AMPAR subunits, shedding light on their potential neuroprotective mechanisms.
The flip isoform was uniformly employed across all AMPAR subunits in this study. These subunits were subcloned into the pRK vector and expressed in Human Embryonic kidney cells sourced (Sigma, München, Germany). HEK293T cells were grown in Dulbecco Modified Eagle Medium (DMEM) (Sigma, München, Germany) containing 10% FBS (fetal bovine serum), 0.1 mg/mL streptomycin, and 1 mM sodium pyruvate (Biological Industries; Beit-Haemek, Israel). HEK293T cells were incubated at 37 °C and 5% CO2 was supplemented to the medium. It was subcultured twice a week until cells reached pass #20. The transfection reagent used was either jetPRIME (Polyplus: New York, NY, USA) or Lipofectamine 2000 (Invitrogen; San Diego, CA, USA). Cells were kept for 36 h. after transfection in 12-well plates. Then, they were replated on coverslips coated with Laminin (1 mg/mL; Sigma, Germany) for electrophysiology recordings. Cells were then seeded in Petri dishes in DMEM supplemented with 10% fetal calf serum and antibiotics and maintained in a humidified incubator at 37 °C and 5% CO2. Highly fluorescent cells were identified and selected for recording post-transfection.
HEK293T cells were recorded for 36–48 h, at a temperature of 22 °C, with a membrane potential of −60 mV. HEK293T cells were recorded 36–48 h after transfection using IPA (Integrated Patch Amplifier) via the […], at a temperature of 22 °C, with a membrane potential of −60 mV. SutterPatch Software v. 1.1.1 (Sutter Instruments, Novato, CA, USA) was used to digitize membrane currents for a short period. The sampling frequency was set to 10 kHz, and the low-pass filter was set to 2 kHz. Borosilicate glass was used to fabricate the patch electrodes with a resistance of 2–4 MΩ. The extracellular solution contained the following (values are in mM): 150 NaCl, 2.8 KCl, 0.5 MgCl2, 2 CaCl2, and 10 HEPES, adjusted to pH 7.4 with NaOH. The pipette solution contained the following (values are in mM): 110 CsF, 30 CsCl, 4 NaCl, 0.5 CaCl2, 10 […], and 10 HEPES, adjusted to pH 7.2 with CsOH. […]
(In general: The patch-clamp technique gives a direct electrical read-out from membranes.)

The mark [1] stands for this setting: Table S6, peak current amplitudes, 8-10 cells, GraphPad Prism fit, read-out: IC50.
The mark [2] stands for this setting: Table S6, read-out: Log IC50 (converted).

Like-named read-outs stand apart in the source and are kept apart here.

T1 sequence (P42261 19-906 isoform P42261-2 limits assumed, species assumed): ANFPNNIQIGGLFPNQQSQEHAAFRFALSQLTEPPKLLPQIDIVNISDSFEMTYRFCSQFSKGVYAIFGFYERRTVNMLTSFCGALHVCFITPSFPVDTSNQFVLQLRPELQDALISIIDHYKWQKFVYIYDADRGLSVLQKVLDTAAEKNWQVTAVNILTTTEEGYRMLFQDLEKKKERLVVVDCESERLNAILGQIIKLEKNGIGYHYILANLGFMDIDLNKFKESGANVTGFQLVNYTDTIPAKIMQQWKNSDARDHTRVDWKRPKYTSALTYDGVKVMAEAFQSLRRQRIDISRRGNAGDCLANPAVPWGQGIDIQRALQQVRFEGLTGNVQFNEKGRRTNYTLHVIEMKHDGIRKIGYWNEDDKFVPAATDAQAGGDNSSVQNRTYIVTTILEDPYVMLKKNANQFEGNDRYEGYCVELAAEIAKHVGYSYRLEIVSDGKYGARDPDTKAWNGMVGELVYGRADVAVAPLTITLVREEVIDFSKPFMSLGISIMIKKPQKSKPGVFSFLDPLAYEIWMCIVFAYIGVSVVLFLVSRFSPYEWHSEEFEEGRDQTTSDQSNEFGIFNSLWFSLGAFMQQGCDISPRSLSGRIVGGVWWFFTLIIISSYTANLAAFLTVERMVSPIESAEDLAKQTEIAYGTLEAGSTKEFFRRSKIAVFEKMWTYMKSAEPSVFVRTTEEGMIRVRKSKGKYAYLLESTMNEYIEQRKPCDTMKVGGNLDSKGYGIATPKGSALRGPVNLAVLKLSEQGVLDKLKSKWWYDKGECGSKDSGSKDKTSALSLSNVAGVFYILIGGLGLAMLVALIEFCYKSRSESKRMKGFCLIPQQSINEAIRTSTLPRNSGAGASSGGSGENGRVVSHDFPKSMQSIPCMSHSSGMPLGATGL

In general, IC50 refers to the concentration that gives 50% inhibition. For `COc1ccc(-c2nc(C(=O)Nc3ccc(C(C)(C)C)cc3)cs2)cc1` [TC-4], the “Amplitude (glutamate plus TC compound)” value is reported as 331±50 pA; the “Amplitude, applying glutamate alone after TC compound” value (shortened to “Amplitude, applying glutamate alone”) is listed as 816±114 pA; the A/AI was determined as 2.53±0.02; the t deact stood at 2.9 ± 0.1 ms. Further, the t des worked out at 2.1 ± 0.1 ms and the “influence on τw des” value is “negligible”. Also, the IC50 under setting [1] was determined as 5.88 µM. In addition, under setting [2], the IC50 was 5.89 µM.

`COc1ccc(-c2nc(C(=O)Nc3ccccc3)cs2)cc1` [TC-3]: the “Amplitude (glutamate plus TC compound)” value is on record as 287±38 pA; the “Amplitude, applying glutamate alone” value was determined as 799±95 pA; the A/AI was found to be 2.97±0.03; the t deact came to 3.0 ± 0.2 ms. The t des was 2.0 ± 0.1 ms and the “influence on τw des” value is recorded as “negligible”. Under setting [1], the IC50 worked out at 5.73 µM. Besides, the IC50 under setting [2] was 5.75 µM.

With `COc1ccc(-c2nc(C(=O)Nc3ccc(OC)c(OC)c3)cs2)cc1` [TC-1], the “Amplitude (glutamate plus TC compound)” value is listed as 177±20 pA; the “Amplitude, applying glutamate alone” value is 848±82 pA; the A/AI is recorded as 4.91±0.1; the t deact was determined as 5.3 ± 0.4 ms. Moreover, the t des came out at 1.3 ± 0.1 ms. In addition, under setting [1], the IC50 came to 3.42 µM. Besides, the IC50 under setting [2] is 3.39 µM.

Source of the values: article PMC11243149, “Assessing the Effects of Thiazole-Carboxamide Derivatives on the Biophysical Properties of AMPA Receptor Complexes as a Potential Neuroprotective Agent” (Molecules, 2024).
